Measured values taken from PMC4326489, “Efficacy and pharmacokinetic evaluation of a novel anti-malarial compound (NP046) in a mouse model” (Malaria Journal, 2015).
Converted amounts (≈) assume the structure as drawn.

Assays:
[1] = Metabolic stability in mouse liver microsomes; assay type: in vitro ADME; settings: 0-60 minutes, read-out: in vitro intrinsic clearance
Description: (§1) Metabolism is an enzymatic process in which a drug is chemically modified into polar metabolites that can be more readily excreted from the body. Metabolism occurs mainly in the liver, and the intestine. The metabolic stability of NP046 was determined in human and mouse liver microsomes using a multiple-time-point method at 0, 5, 10, 30, and 60 minutes [for the methodology see Additional file 5].
(§2) Summary of the assay method for the determination of microsomal stability:
(§3) The assay method was adopted from Obach, 1999, Giuliano et al., 2005, and Naritomi et al., 2001, with a slight modification.
(§4) The liver microsome (human and mouse) was thawed at 37 °C, and diluted to 0.4 mg/ml in a preheated (at 37 °C) 0.1 M phosphate buffer.
(§5) The primary stock solutions (10 mM) of the controls and test compounds were diluted as follows: first in DMSO to obtain 400 µM solutions followed by dilution in phosphate buffer to 40 µM, and were vortex mixed well by vortexing at each step of dilution.
(§6) A reaction premix (in triplicate for each control and test compound) were prepared by mixing 15 µl of the 40 µM solution with 530 µl of 0.4 mg/ml microsome mixture in a premix plate, and mixed carefully using a plate shaker. […]
(§7) The intrinsic clearance (ml/min/kg) was calculated using the equation (Obach et al., 1997): […]

[2] = Stability in whole blood (long term, freeze and thaw, on bench); assay type: in vitro ADME, human; settings: for Long term stability, mean concentration found: -80°C, 92 days; for On bench stability, mean concentration found: on bench 3.3 hours
Description: Owing to the scarcity of mouse blood, the assay was developed and validated using human whole blood and then cross validated with mice whole blood to ensure that the same results were obtained in the same matrix of both species. NP046 was stable for 100 days in stock solutions of methanol and acetonitrile when stored at room temperature and -20 °C. It was stable in whole blood on bench for 3.3 hours while waiting for extraction, and was stable after three freeze-thaw cycles too.

[3] = Metabolic stability in human liver microsomes; assay type: in vitro ADME; settings: 0-60 minutes, read-out: in vitro intrinsic clearance
Description: as §1, §2, §3, §4, §5, §6, §7

[4] = Plasma protein binding by ultracentrifugation; assay type: in vitro ADME; settings: read-out: PPB (plasma protein binding) (converted)
Description: In this study, since the NSB > 5%, ultracentrifugation was used to assess the PPB property of NP046 [for the methodology see Additional file 3]. […] Procedure for the determination of PPB by Ultracentrifugation (procedure was adopted from Barré et al., 1985; with a slight modification). Thaw plasma aliquots in a water bath at 22 °C. Centrifuge plasma aliquots at 2000 g for 5 minutes, and decant and pool the supernatant. Prepare plasma and PBS samples at a high concentration (1000 ng/ml), and low concentration (10 ng/ml) for all the test compounds under investigation. The PBS samples were used to determine the response of the unbound (or free) drug, and were not subjected to ultracentrifugation. Plasma samples were incubated at 37 °C in a water bath for 20minutes to allow samples to reach physiological temperature, and then the samples were aliquoted into BECKMAN Quick-Seal centrifuge tubes (13 ml). Ultracentrifuge plasma samples at 2 x 10^5 g for 6 hours at 37 °C using BECKMAN L8-[…] ultracentrifuge (80Ti). The supernatant was extracted, and its response was compared with that of the PBS extract after being analysed by the validated LC-MS/MS bioanalytical drug assay methods stated in chapters 8 and 9. PPB% was calculated using the equation: Where T = total drug concentration; and F = free drug concentration.

[5] = Kinetic solubility (HPLC-UV); assay type: physicochemical; settings: aqueous buffer, kinetic from dmso stock, PBS pH 2.0
Description: The concentration of the test compound (x) in PBS samples was calculated from the peak area (y) in its UV chromatogram by extrapolation from the three-point calibration line, using the equation y = ax + b; where a = slope and b = intercept.
Summary of the assay method for the determination kinetic solubility:
PBS was prepared and its pH adjusted to 2.0 and 7.4
primary stock solutions of the test compounds and controls (reserpine and hydrocortisone) in DMSO at 10 mM were prepared
Samples were briefly vortex mixed
samples were incubated for 2 hours while mixing in an incubator with orbital shaker at 200 rpm
samples were centrifuged at 3500 rpm for 15 minutes at 22 °C
the supernatant of the standards were transferred from the clear 96-well plate into an opaque, round bottom 96-well analysis plate, while the aqueous samples were filtered using a vacuum manifold through a multi-screen filter plate (MSRLN 0450, 0.4 µM), into the same opaque, round bottom 96-well plate
samples were analysed using HPLC-UV method by injecting the STDs in duplicate, and the samples in singlet.

Caco-2 cell line = test: Caco-2 permeability, apical to basolateral drug transport assay; assay type: in vitro ADME, human; settings: transport buffer pH 7.4, LC-MS/MS, experiment repeated with same result
Description: Permeability is the speed/velocity and extent to which a drug passes through a biological membrane obstacle in a living system, such as the gastrointestinal (GI) epithelial cells, the blood capillary wall, the target cell membrane. The Caco-2 cell line (a continuous line of heterogeneous human epithelial colorectal adenocarcinoma cells), the most widely used and recognized as a model of the intestinal barrier was used to determine the in vitro permeability of NP046 [for the methodology see Additional file 6]. The transport of each drug from the apical side to the basolateral side was done using a transport buffer that consisted of Hank’s Balanced Salt Solution (HBSS) + 10 mM HEPES + […] NaHCO3, pH 7.4 (1:100 1 M HEPES in HBSS). The drug transport assay was performed by determining the concentrations of the test compound from the basolateral chamber, using an LC-MS/MS assay. […] Therefore, the experiment was repeated and the same result was obtained. This could be due to the following reasons: IVc. Drug transport assay: The monolayer was rinsed with HBSS Test compounds (200 µl) was added into the apical chambers of the monolayers inserted in a plate containing 600 µl HBSS The plate was placed in a water bath with orbital shaker (60 rpm) for 2 hours at 37 °C Fifty micro litters of the solution were removed from the apical and basolateral wells and analysed using LC-MS method.

[6] = whole blood, nominal High (799.9)
[7] = whole blood, nominal Low (4.999)

Oc1cc(CCCc2ccc(F)cc2)ccc1CN1CCCCC1 [NP046, 5-(3-(4-fluorophenyl)propyl)-2-(piperidin-1-ylmethyl)phenol]
microsomal CLint at 0.99 µM [1]: 657 µL/min/mg
stability in whole blood on bench ([2]; 3.3 hours while waiting for extraction): stable
long term matrix stability ([2]; whole blood at -80°C for 92 days): stable
Long term stability, mean concentration found [2, 6]: 732. ng/ml
Long term stability, mean concentration found [2, 7]: 5.081 ng/mL
On bench stability, mean concentration found [2, 6]: 716.9 ng/mL
On bench stability, mean concentration found [2, 7]: 5.370 ng/mL
stability after freeze-thaw cycles ([2]; whole blood, three freeze-thaw cycles): stable
Freeze and thaw stability, mean concentration found ([2]; whole blood, three freeze-thaw cycles, nominal High (799.9)): 718.6 ng/mL
Freeze and thaw stability, mean concentration found ([2]; whole blood, three freeze-thaw cycles, nominal Low (4.999)): 5.037 ng/mL
microsomal CLint at 0.99 µM [3]: 119 µL/min/mg
fraction unbound at 6 h, 10 ng/ml ([4]; at 10 ng/ml): 0.797
fraction unbound at 6 h, 1000 ng/ml ([4]; at 1000 ng/ml): 0.72
solubility at 2 h [5]: 185 µM (≈ 60.7 µg/mL)
test compound found in the basolateral chamber (apical to basolateral transport) (Caco-2 cell line): no quantifiable amount
